Reference: patent publication US20240083879A1, “OXALAMIDE COMPOUNDS AND COMPOSITIONS FOR TREATING CONDITIONS ASSOCIATED WITH STING ACTIVITY” (IFM Due, Inc., priority 2021, published 2024)

What follows are molecules tested against hSTING (Homo sapiens (Human), UniProt Q86WV6, G230A/R293Q/R71H) (assay: STING reporter assay (luciferase) in THP1-Dual KO-IFNAR2 cells stimulated with 2'3'cGAMP). Details: 15 μM 2'3'cGAMP, 24 h.
Format: cell-based
Method: STING pathway activation by the compounds described herein was measured using THP1-Dual™ cells (KO-IFNAR2).
THP1-Dual™ KO-IFNAR2 Cells (obtained from invivogen) were maintained in RPMI, 10% FCS, 5 ml P/S, 2 mM L-glut, 10 mM Hepes, and 1 mM sodium pyruvate. Compounds were spotted in empty 384 well tissue culture plates (Greiner 781182) by Echo for a final concentration of 0.0017-100 μM. Cells were plated into the TC plates at 40 μL per well, 2×10E6 cells/mL. For activation with STING ligand, 2′3′cGAMP (MW 718.38, obtained from Invivogen), was prepared in Optimem media.
The following solutions were prepared for each 1×384 plate: • Solution A: 2 mL Optimem with one of the following stimuli: • 60 μL of 10 mM 2′3′cGAMP→150 μM stock • Solution B: 2 mL Optimem with 60 μL Lipofectamine 2000→Incubate 5 min at RT
2 mL of solution A and 2 ml Solution B was mixed and incubated for 20 min at room temperature (RT). 20 μL of transfection solution (A+B) was added on top of the plated cells, with a final 2′3′cGAMP concentration of 15 μM. The plates were then centrifuged immediately at 340 g for 1 minute, after which they were incubated at 37° C., 5% CO2, >98% humidity for 24 h. Luciferase reporter activity was then measured. EC50 values were calculated by using standard methods known in the art.
Luciferase reporter assay: 10 μL of supernatant from the assay was transferred to white 384-plate with flat bottom and squared wells. One pouch of QUANTI-Luc™ Plus was dissolved in 25 mL of water. 100 μL of QLC Stabilizer per 25 mL of QUANTI-Luc™ Plus solution was added. 50 μL of QUANTI-Luc™ Plus/QLC solution per well was then added. Luminescence was measured on a Platereader (e.g., Spectramax I3X (Molecular Devices GF3637001)).
Luciferase reporter activity was then measured. EC50 values were calculated by using standard methods known in the art.

hSTING, sequence (Q86WV6 whole entry R71H/G230A/R293Q): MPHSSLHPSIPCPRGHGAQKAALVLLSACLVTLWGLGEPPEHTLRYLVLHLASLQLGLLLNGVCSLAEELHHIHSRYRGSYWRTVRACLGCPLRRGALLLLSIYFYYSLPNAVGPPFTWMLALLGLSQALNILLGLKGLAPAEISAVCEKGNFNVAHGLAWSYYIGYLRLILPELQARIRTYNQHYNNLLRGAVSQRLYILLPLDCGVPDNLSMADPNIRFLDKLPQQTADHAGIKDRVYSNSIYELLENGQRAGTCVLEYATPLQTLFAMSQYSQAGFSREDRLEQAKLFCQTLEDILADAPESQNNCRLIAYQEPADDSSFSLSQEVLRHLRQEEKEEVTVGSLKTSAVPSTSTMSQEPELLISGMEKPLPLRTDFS

Structure (SMILES)	EC50
CCc1ccc(-n2cc(-c3ccc4[nH]cc(NC(=O)C(=O)NCC5CC5)c4c3)cn2)cc1 [Compound 105, N-(cyclopropylmethyl)-N′-{5-[1-(4-ethylphenyl)-1H-pyrazol-4-yl]-1H-indol-3-yl}ethanediamide]	200 to 1000 nM
CNC(=O)C(=O)Nc1c[nH]c2ccc(-c3cccc(C4CC4)c3)cc12 [Compound 117, N^1-(5-(3-cyclopropylphenyl)-1H-indol-3-yl)-N^2-methyloxalamide]	5000 to 100000 nM
CCc1ccc(-n2cc(-c3ccc4[nH]cc(NC(=O)C(=O)N(C)C)c4c3)cn2)cc1 [Compound 112, N′-{5-[1-(4-ethylphenyl)-1H-pyrazol-4-yl]-1H-indol-3-yl}-N,N-dimethylethanediamide]	200 to 1000 nM
CCc1ccc(-n2cc(-c3ccc4[nH]cc(NC(=O)C(=O)NCC(F)(F)F)c4c3)cn2)cc1 [Compound 114, N1-(5-(1-(4-ethylphenyl)-1H-pyrazol-4-yl)-1H-indol-3-yl)-N^2-(2,2,2-trifluoroethyl)oxalamide]	200 to 1000 nM
CCc1ccc(-n2cc(-c3ccc4[nH]cc(NC(=O)C(=O)N5CCN(C(C)=O)CC5)c4c3)cn2)cc1 [Compound 111, 2-(4-acetylpiperazin-1-yl)-N-{5-[1-(4-ethylphenyl)-1H-pyrazol-4-yl]-1H-indol-3-yl}-2-oxoacetamide]	200 to 1000 nM
CCc1ccc(-n2cc(-c3ccc4[nH]cc(NC(=O)C(=O)N5CCCC5)c4c3)cn2)cc1 [Compound 115, N-{5-[1-(4-ethylphenyl)-1H-pyrazol-4-yl]-1H-indol-3-yl}-2-oxo-2-(pyrrolidin-1-yl)acetamide]	200 to 1000 nM
CCc1ccc(-n2cc(-c3ccc4[nH]cc(NC(=O)C(=O)NC(C)C)c4c3)cn2)cc1 [Compound 110, N′-{5-[1-(4-ethylphenyl)-1H-pyrazol-4-yl]-1H-indol-3-yl}-N-(propan-2-yl)ethanediamide]	200 to 1000 nM
CCc1ccc(-n2cc(-c3ccc4[nH]cc(NC(=O)C(=O)NCCC(F)(F)F)c4c3)cn2)cc1 [Compound 103, N′-{5-[1-(4-ethylphenyl)-1H-pyrazol-4-yl]-1H-indol-3-yl}-N-(3,3,3-trifluoropropyl)ethanediamide]	200 to 1000 nM
CCc1ccc(-n2cc(-c3ccc4[nH]cc(NC(=O)C(=O)N5CCC5)c4c3)cn2)cc1 [Compound 107, 2-(azetidin-1-yl)-N-{5-[1-(4-ethylphenyl)-1H-pyrazol-4-yl]-1H-indol-3-yl}-2-oxoacetamide]	200 to 1000 nM
CCc1ccc(-n2cc(-c3ccc4[nH]cc(NC(=O)C(=O)NC5CCCC5)c4c3)cn2)cc1 [Compound 104, N′-cyclopentyl-N-{5-[1-(4-ethylphenyl)-1H-pyrazol-4-yl]-1H-indol-3-yl}ethanediamide]	200 to 1000 nM
CNC(=O)C(=O)Nc1c[nH]c2ccc(-c3cnn(-c4ccc(C(F)(F)F)cc4)c3)cc12 [Compound 118, N^1-methyl-N^2-(5-(1-(4-(trifluoromethyl)phenyl)-1H-pyrazol-4-yl)-1H-indol-3-yl)oxalamide]	200 to 1000 nM
O=C(Nc1c[nH]c2ccc(-c3cnn(-c4ccc(C(F)(F)F)cc4)c3)cc12)C(=O)NC1COC1 [Compound 102, N^1-(oxetan-3-yl)-N^2-(5-(1-(4-(trifluoromethyl)phenyl)-1H-pyrazol-4-yl)-1H-indol-3-yl)oxalamide]	200 to 1000 nM
CCc1ccc(-n2cc(-c3ccc4[nH]cc(NC(=O)C(=O)NCCOC)c4c3)cn2)cc1 [Compound 120, N′-{5-[1-(4-ethylphenyl)-1H-pyrazol-4-yl]-1H-indol-3-yl}-N-(2-methoxyethyl)ethanediamide]	200 to 1000 nM

The remaining lines, values ahead:

EC50	Structure (SMILES)
1000 to 5000 nM	CNC(=O)C(=O)Nc1c[nH]c2ccc(-c3cnn(-c4ccccc4Cl)c3)cc12 [Compound 121, N^1-(5-(1-(2-chlorophenyl)-1H-pyrazol-4-yl)-1H-indol-3-yl)-N^2-methyloxalamide]
200 to 1000 nM	CCc1ccc(-n2cc(-c3ccc4[nH]cc(NC(=O)C(=O)N[C@H]5C[C@H](OC)C5)c4c3)cn2)cc1 [Compound 109, N′-{5-[1-(4-ethylphenyl)-1H-pyrazol-4-yl]-1H-indol-3-yl}-N-[(1r,3r)-3-methoxycyclobutyl]ethanediamide]
200 to 1000 nM	CCc1ccc(-n2cc(-c3ccc4[nH]cc(NC(=O)C(=O)NCC5CCCC5)c4c3)cn2)cc1 [Compound 106, N′-(cyclopentylmethyl)-N-{5-[1-(4-ethylphenyl)-1H-pyrazol-4-yl]-1H-indol-3-yl}ethanediamide]
200 to 1000 nM	CCc1ccc(-n2cc(-c3ccc4[nH]cc(NC(=O)C(=O)NC5CCOC5)c4c3)cn2)cc1 (stereo not drawn) [Compound 108, N-{5-[1-(4-ethylphenyl)-1H-pyrazol-4-yl]-1H-indol-3-yl}-N′-(oxolan-3-yl)ethanediamide]
5000 to 100000 nM	CNC(=O)C(=O)Nc1c[nH]c2ccc(-c3cnn(C4CCCC4)c3)cc12 [Compound 122, N^1-(5-(1-cyclopentyl-1H-pyrazol-4-yl)-1H-indol-3-yl)-N^2-methyloxalamide]
200 to 1000 nM	CCc1ccc(-n2cc(-c3ccc4[nH]cc(NC(=O)C(N)=O)c4c3)cn2)cc1 [Compound 124, N^1-(5-(1-(4-ethylphenyl)-1H-pyrazol-4-yl)-1H-indol-3-yl)oxalamide]
200 to 1000 nM	CCc1ccc(-n2cc(-c3ccc4[nH]cc(NC(=O)C(=O)NC)c4c3)cn2)cc1 [Compound 123, N′-[5-[1-(4-ethylphenyl)pyrazol-4-yl]-1H-indol-3-yl]-N-methylethanediamide]
1000 to 5000 nM	CNC(=O)C(=O)Nc1c[nH]c2ccc(-c3cnn(-c4cccc(Cl)c4)c3)cc12 [Compound 119, N^1-(5-(1-(3-chlorophenyl)-1H-pyrazol-4-yl)-1H-indol-3-yl)-N^2-methyloxalamide]
200 to 1000 nM	CCc1ccc(-n2cc(-c3ccc4[nH]cc(NC(=O)C(=O)NCC(F)F)c4c3)cn2)cc1 [Compound 116, N-(2,2-difluoroethyl)-N′-{5-[1-(4-ethylphenyl)-1H-pyrazol-4-yl]-1H-indol-3-yl}ethanediamide]
200 to 1000 nM	CO[C@H]1C[C@H](NC(=O)C(=O)Nc2c[nH]c3ccc(-c4cnn(-c5ccc(C(F)(F)F)cc5)c4)cc23)C1 [Compound 101, N-[trans-3-methoxycyclobutyl]-N′-(5-[1-[4-(trifluoromethyl)phenyl]pyrazol-4-yl]-1H-indol-3-yl)ethanediamide]
200 to 1000 nM	CCc1ccc(-n2cc(-c3ccc4[nH]cc(NC(=O)C(=O)NC5CCC5)c4c3)cn2)cc1 [Compound 113, N-cyclobutyl-N′-{5-[1-(4-ethylphenyl)-1H-pyrazol-4-yl]-1H-indol-3-yl}ethanediamide]
